Measurements taken from ChEMBL document CHEMBL1130015, “Cardioselective antiischemic ATP-sensitive potassium channel (KATP) openers. 5. Identification of 4-(N-aryl)-substituted benzopyran derivatives with high selectivity” (J Med Chem, 1997).

Legend:
[1] = species: Rattus norvegicus; experiment: Vasorelaxant potency determined by measurement of IC50 value for relaxation of rat aorta precontracted with methoxamine; assay type: functional
[2] = species: Rattus norvegicus; experiment: Antiischemic potency is determined by EC25 value for increase in time to the onset of contracture in globally ischemic isolated perfused rat hearts.; assay type: functional
[3] = species: Rattus norvegicus; experiment: Ratio of the EC25 value for time to contracture and IC50 value for vasorelaxant potency indicates selectivity in vitro for the ischemic myocardium.; assay type: functional
[4] = species: Rattus norvegicus; experiment: Percent increase in cardio protective activity at concentration of 10 uM; assay type: functional, Heart
[5] = Oral bioavailability in rats was determined in vivo; assay type: ADME, organism-based; conditions: rat, read-out: Bioavailabiility
[6] = Maximum plasma concentration following oral administration of 30 umol/kg; assay type: ADME, organism-based; set-up: dose 30 umol/kg, route oral
[7] = Pharmacokinetic parameter Tmax following oral administration of 30 umol/kg; assay type: ADME, organism-based; conditions: in vivo
[8] = Apparent terminal elimination half life in rats; assay type: ADME, organism-based; conditions: rat, in vivo

Compound	IC50 [1] [µM]	EC25 [2] [µM]	Ratio [3]	Increase [4] [%]	also measured
CCOP(=O)(CN(c1ccc(F)cc1)[C@H]1c2cc(C#N)ccc2OC(C)(C)[C@@H]1O)OCC	47	4.9	0.104		
CCOC(=O)C(=O)N(c1ccc(F)cc1)[C@H]1c2cc(C#N)ccc2OC(C)(C)[C@@H]1O	43			0	
CCCCOC(=O)CN(c1ccccc1)[C@H]1c2cc(C#N)ccc2OC(C)(C)[C@@H]1O	27			8	
CCOC(=O)CN(c1nc2ccccc2o1)[C@H]1c2cc(C#N)ccc2OC(C)(C)[C@@H]1O	> 30			0	
CC1(C)Oc2ccc(C#N)cc2[C@@H](/N=C(\NC#N)Nc2ccc(Cl)cc2)[C@@H]1O		2.5	1.4		
COC(=O)c1cc2ccccc2n1[C@@H]1c2cc(C#N)ccc2OC(C)(C)[C@H]1O		8.1	0.25		
CC1(C)Oc2ccc(C#N)cc2[C@H](N(CCS(C)(=O)=O)c2ccccc2)[C@H]1O	27			0	
CCOC(=O)CCN(c1ccccc1)[C@H]1c2cc(C#N)ccc2OC(C)(C)[C@@H]1O	54			26	
CCOC(=O)CN(c1ccccc1)[C@@H]1c2cc(C#N)ccc2OC(C)(C)[C@H]1O [listing 1 of 2 here]	> 30			5	
CCOC(=O)CN(c1nc(C)cs1)[C@H]1c2cc(C#N)ccc2OC(C)(C)[C@@H]1O	84	7.8	<0.09		
CCOC(=O)CCCN(c1ccccc1)[C@H]1c2cc(C#N)ccc2OC(C)(C)[C@@H]1O	> 30	5.7			
CC1(C)Oc2ccc(C#N)cc2[C@@H](N2CCCC2=O)[C@@H]1O [CROMAKALIM]		8.9	278		
CC1(C)Oc2ccc(C#N)cc2[C@H](Nc2ccccc2)[C@H]1O		3.9	3.9		
CCOC(=O)CN(c1ccccc1)[C@@H]1c2cc(C#N)ccc2OC(C)(C)[C@H]1O [listing 2 of 2 here]	> 30	4.7	<0.17		
CCOC(=O)NN(c1ccccc1)[C@H]1c2cc(C#N)ccc2OC(C)(C)[C@@H]1O	2.2	4.3	1.95		
CCNC(=O)CN(c1ccccc1)[C@H]1c2cc(C#N)ccc2OC(C)(C)[C@@H]1O	> 30			21	
CCOC(=O)CN(c1ccccc1)[C@H]1c2cc(C#N)ccc2OC(C)(C)[C@@H]1O	> 30	2.2	<0.07	38	
CC(=O)NCCN(c1ccccc1)[C@H]1c2cc(C#N)ccc2OC(C)(C)[C@@H]1O	> 30			5	

More lines, main results first:

IC50 [1] [µM]	Compound	EC25 [2] [µM]	Ratio [3]	Increase [4] [%]	also measured
> 30	CC1(C)Oc2ccc(C#N)cc2[C@H](N(Cc2ncc[nH]2)c2ccccc2)[C@H]1O	4.3	<0.14		
> 30	COCCN(c1ccccc1)[C@H]1c2cc(C#N)ccc2OC(C)(C)[C@@H]1O			15	
> 30	CC1(C)Oc2ccc(C#N)cc2[C@H](N(Cc2ncc[nH]2)c2ccc(F)cc2)[C@H]1O	3.3	0.11		
59	CC1(C)Oc2ccc(C#N)cc2[C@H](N(CC#N)c2ccccc2)[C@H]1O			8	
> 30	CC1(C)Oc2ccc(C#N)cc2[C@H](N(Cc2ncco2)c2ccccc2)[C@H]1O	5.3	<0.18		
> 30	CCOC(=O)CN(c1ccc(F)cc1)[C@H]1c2cc(C#N)ccc2OC(C)(C)[C@@H]1O	3.8	<0.017		
> 30	CC1(C)Oc2ccc(C#N)cc2[C@H](N(Cc2ncc[nH]2)c2ccc(Cl)cc2)[C@H]1O [BMS-191095]	1.4	<0.05		bioavailability [5]: 47%; Cmax [6]: 1300 nM; Tmax [7]: 1.9 h; half-life [8]: 3 h
> 30	CC1(C)Oc2ccc(C#N)cc2[C@@H](N(Cc2ncc[nH]2)c2ccc(Cl)cc2)[C@@H]1O			14	
> 30	Cc1noc(CN(c2ccccc2)[C@H]2c3cc(C#N)ccc3OC(C)(C)[C@@H]2O)n1	10	<0.33		
> 30	CCOC(=O)CN(c1ccc(Cl)cc1)[C@H]1c2cc(C#N)ccc2OC(C)(C)[C@@H]1O	6.5	<0.22		
> 30	Cc1cc(CN(c2ccccc2)[C@H]2c3cc(C#N)ccc3OC(C)(C)[C@@H]2O)on1			11	
12	CC1(C)Oc2ccc(C#N)cc2[C@H](N(Cc2ccco2)c2ccccc2)[C@H]1O	3.2	0.27		
> 100	CC1(C)Oc2ccc(C#N)cc2[C@H](N(CC(=O)O)c2ccccc2)[C@H]1O			0	
